Results taken from PMC12020424, “Identification and Validation of Cyclic Peptides with Mucin-Selective, Location-Specific Binding in the Gastrointestinal Tract” (ACS Nano, 2025).
Bridge positions count the residues as written; N and C are the ends. Ends that are not written are not given here.

How the values were obtained:
[1] = system: MUC2-containing intestinal tissue (jejunal); assay: Ex vivo fluorescent binding to small intestine tissue; parameters: species or system porcine; conditions: MUC2-selective peptides to small intestine; for Overall nanoparticle “score”: scaled between free AF647 (0) and WGA-AF647 (1), mean across trials n = 3; for Selectivity: score for MUC2 tissue / sum of scores for all mucins, n = 3
Source text: After identifying the peptide hits for each mucin, we tested their binding in an ex vivo setting (Figure S1), evaluating their interaction with mucin-containing porcine tissue and semiquantitatively representing it through fluorescent imaging (Figure 3a). The cyclic peptides were synthesized and conjugated to a fluorophore, Alexa Fluor 647 (AF647), at the N-terminus to allow fluorescent imaging to be used to semiquantitatively measure the peptides’ ex vivo tissue binding, compared to free AF647 and AF647 conjugated to wheat germ agglutinin (WGA), a known lectin for glycoproteins.[40] […] Porcine GI tissue was used due to its similarity in mucin expression compared to human GI tissue and its capacity to source large surface areas of tissue for experiments.[41],[42] Representative IVIS images are shown in Figure 3b-e, where the first four columns represent the four identified peptides (M2.1–M2.4 in Figure 3b,c, M5.1–M5.4 in Figure 3d,e), the fifth column represents WGA-AF647, and the sixth column represents AF647. The “score” results for the peptide ligands are presented in Figure 3f,g for the mucins of interest, with Tables S2–S5 and Figure S3 detailing results for the other tissues (the equation for calculating the “score” is found in the Materials and Methodssection). […] We also examined selectivity by incubating peptides on nontarget tissues. Figure 3h,i depicts the “selectivity” results for the MUC2-selective and MUC5AC-selective peptides, respectively. Selectivity was calculated by determining the ratio of the “score” for a particular mucin to the sum of the “scores” for all mucins (see the Materials and Methods section for the equation used).
The top-performing hits from phage display were tested on ex vivo segments of porcine mucin-containing tissues (jejunal, stomach, and esophageal tissues) obtained from local abattoirs or laboratory-maintained pigs. Tissue was used either immediately after acquisition or after storage at −80 °C; tissue was used at most 1 week after acquisition and storage at −80 °C. After acquisition and equilibration to room temperature, the tissue was washed twice with 25 mL (each) of cold 1× PBS to remove undigested food and other debris. After washing and cleaning, the tissue was mounted between two magnetic plates with holes corresponding to a 48-well plate, as previously described,[72] such that the luminal side of the tissue was facing up (Figure S1). After the tissue was mounted, the amount of peptide/protein corresponding to 40 μg of AF647 was suspended in 200 μL of 1× PBS and added to the wells created by the magnetic plates. This was done 3× for each formulation to perform the experiment in triplicate. In addition, plain 1× PBS was added to one well to serve as the background measurement. After the peptides were added, the plate setup was covered with aluminum foil and allowed to incubate for 1 h at room temperature with gentle agitation (50 rpm). After incubation, the nonbinding peptides were removed by pouring out the solutions onto a clean paper towel, and the setup was washed three times by adding 200 μL of 1× PBS to each well and gently agitating the setup for 30 s before removing the washing solution. After washing was complete, fluorescence imaging was performed using an IVIS Spectrum fluorescent imaging system (PerkinElmer), with an automatically calculated exposure time (usually ∼1 s), a 20 cm × 20 cm field of view, and an excitation/emission of 640/680 nm, respectively. The imaging results were analyzed using Living Image software to calculate the total fluorescence intensity for each well, and the results for each hit or control were averaged across different wells. The negative control used was unconjugated AF647, while the positive control was WGA-AF647, since WGA is a known lectin that binds glycoproteins.
To better account for tissue-to-tissue variability, the results for each trial were reported as scores rather than using the raw fluorescence intensity. […]

MUC5AC = MUC5AC (Homo sapiens, UniProt P98088); assay: Phage ELISA on MUC5AC; assay type: binding; conditions: phage clones displaying the peptide, 10^7 PFU/μL, MUC5AC-coated plate, anti-M13/HRP, TMB, 450 nm, blank subtracted, three wells; vs random library and insertless phage
Source text: We next sought to validate the binding efficiency of these identified phage clones. We tested phage clones displaying peptides M2.1, M2.2, M2.3, and M2.4 for binding to MUC2, and phage clones displaying peptides M5.1, M5.2, M5.3, and M5.4 for binding to MUC5AC. We utilized a bacteriophage enzyme-linked immunosorbent assay to test the binding of the peptide hits to the specific target mucins, MUC2 and MUC5AC (Figure 2d). The spectrophotometer reported absorbance values at 450 nm. The intensity of the absorbance signal is proportional to the amount of peptide-mucin binding present in each sample. The negative controls (library samples and insertless samples) served as references for nonspecific binding.
First, mucin was coated onto the surface of a plastic plate overnight using the same process as that performed for the original phage display. The next morning, three wells of each phage clone were prepared, with each phage solution having a titer of 10^7 PFU/μL to ensure a fair comparison between the clones. […]
However, instead of eluting the bound phage, 100 μL of 1:2000 anti-M13/HRP mouse monoclonal antibody was added to each well, and the antibody was allowed to incubate with the wells for 30 min. […] The resulting solutions were analyzed by absorbance spectroscopy at a wavelength of 450 nm to determine the relative amount of phage present in each well.

Sequence | Overall nanoparticle “score” [1] | Selectivity [1] | phage ELISA binding vs negative controls (MUC5AC)
CAKHRIMLC (disulfide 1-9 (inferred)) [Peptide M2.1, CX7C cyclic peptide hit for MUC2; AF647 conjugated at N-terminus in ex vivo tests] | 0.550 | 0.298 | –
CTDKASSSC (disulfide 1-9 (inferred)) [Peptide M2.2, CX7C cyclic peptide hit for MUC2] | 0.243 | 0.396 | –
CTDKASSSC (disulfide 1-9 (inferred)) [Peptide M5.1, CX7C cyclic peptide hit for MUC5AC] | – | – | significantly greater binding to MUC5AC than the random library and insertless phage
